Source: ChEMBL document CHEMBL4813938, “Astragaloside IV Improves Tibial Defect in Rats and Promotes Proliferation and Osteogenic Differentiation of hBMSCs through MiR-124-3p.1/STAT3 Axis” (J Nat Prod, 2021)
The source made the active and inactive calls. The rule behind the calls is not given here.

Assays:
[1] = system: Rattus norvegicus; test: Induction of tibial bone defect regeneration in ip dosed Lewis rat assessed as reduction in […] mRNA expression level administered for 10 consecutive days by RT-qPCR analysis; format: functional, organism-based; settings: dose 0.16-4 g/Kg, time 10.0 day
[2] = system: Rattus norvegicus; test: Induction of tibial bone defect regeneration in ip dosed Lewis rat assessed as […] in STAT3 mRNA expression level administered for 10 consecutive days by RT-qPCR analysis; format: functional, organism-based; settings: dose 0.16-4 g/Kg, time 10.0 day
[3] = system: Rattus norvegicus; test: Induction of tibial bone defect regeneration in ip dosed Lewis rat assessed as […] in STAT3 protein expression level administered for 10 consecutive days by Western blotting analysis; format: functional, organism-based; settings: dose 0.16-4 g/Kg, time 10.0 day
[4] = system: Rattus norvegicus; test: Induction of tibial bone defect regeneration in ip dosed Lewis rat assessed as increase in BV/TV of tibial bone administered for 10 consecutive days by microcomputed tomography method; format: functional, organism-based; settings: dose 0.16-4 g/Kg, time 10.0 day
[5] = system: Rattus norvegicus; test: Induction of tibial bone defect regeneration in ip dosed Lewis rat assessed as increase in Tb.N of tibial bone administered for 10 consecutive days by microcomputed tomography method; format: functional, organism-based; settings: dose 0.16-4 g/Kg, time 10.0 day
[6] = system: Rattus norvegicus; test: Induction of tibial bone defect regeneration in ip dosed Lewis rat assessed as increase in Tb.Th of tibial bone administered for 10 consecutive days by microcomputed tomography method; format: functional, organism-based; settings: dose 0.16-4 g/Kg, time 10.0 day
[7] = system: Rattus norvegicus; test: Induction of tibial bone defect regeneration in ip dosed Lewis rat assessed as increase in BMD of tibial bone administered for 10 consecutive days by microcomputed tomography method; format: functional, organism-based; settings: dose 0.16-4 g/Kg, time 10.0 day
[8] = system: Rattus norvegicus; test: Induction of tibial bone defect regeneration in ip dosed Lewis rat assessed as decrease in Tb.Sp of tibial bone administered for 10 consecutive days by microcomputed tomography method; format: functional, organism-based; settings: dose 0.16-4 g/Kg, time 10.0 day
[9] = system: HBMSC; test: Induction of osteogenic differentiation in human BMSCs assessed as increase in cell viability incubated for 72 hrs under osteogenic conditions by MTT assay; format: functional, tissue-based; settings: dose 80-320 mg/ml
[10] = system: HBMSC; test: Induction of cell cycle arrest in human BMSCs assessed as decrease in cells at G0/G1 phase under osteogenic conditions by PI staining based flow cytometric analysis; format: functional; settings: dose 80-320 mg/ml
[11] = system: HBMSC; test: Induction of cell cycle arrest in human BMSCs assessed as accumulation of cells at S phase under osteogenic conditions by PI staining based flow cytometric analysis; format: functional, tissue-based; settings: dose 80-320 mg/ml
[12] = system: HBMSC; test: Induction of cell cycle arrest in human BMSCs assessed as accumulation of cells at G2/M phase under osteogenic conditions by PI staining based flow cytometric analysis; format: functional, tissue-based; settings: dose 80-320 mg/ml
[13] = system: HBMSC; test: Induction of osteogenic differentiation in human BMSCs assessed as increase in alkaline phosphatase activity incubated for 21 days under osteogenic conditions by ELISA; format: functional, tissue-based; settings: dose 80-320 mg/ml, time 21.0 day
[14] = system: HBMSC; test: Induction of osteogenic differentiation in human BMSCs assessed as increase in osteogenic medium-induced matrix mineralization by measuring calcium deposition by Alizarin Red S staining-based microscopic analysis; format: functional, tissue-based; settings: dose 80-320 mg/ml
[15] = system: HBMSC; test: Induction of osteogenic differentiation in human BMSCs assessed as increase in osteogenic medium-induced RUNX2 protein expression level by Western blot analysis; format: functional, tissue-based; settings: dose 80-320 mg/ml
[16] = system: HBMSC; test: Induction of osteogenic differentiation in human BMSCs assessed as increase in osteogenic medium-induced OCN protein expression level by Western blot analysis; format: functional, tissue-based; settings: dose 80-320 mg/ml
[17] = system: HBMSC; test: Induction of osteogenic differentiation in human BMSCs assessed as increase in osteogenic medium-induced Smad4 protein expression level by Western blot analysis; format: functional, tissue-based; settings: dose 80-320 mg/ml
[18] = system: HBMSC; test: Induction of osteogenic differentiation in human BMSCs assessed as increase in osteogenic medium-induced RUNX2 mRNA expression level by RT-qPCR analysis; format: functional, tissue-based
[19] = system: HBMSC; test: Induction of osteogenic differentiation in human BMSCs assessed as increase in osteogenic medium-induced OCN mRNA expression level by RT-qPCR analysis; format: functional, tissue-based; settings: dose 80-320 mg/ml
[20] = system: HBMSC; test: Induction of osteogenic differentiation in human BMSCs assessed as increase in osteogenic medium-induced Smad4 mRNA expression level by RT-qPCR analysis; format: functional, tissue-based; settings: dose 80-320 mg/ml
[21] = system: HBMSC; test: Induction of osteogenic differentiation in human BMSCs assessed as down regulation of miR-124-3p.1 mRNA expression level at 160 mg/ml under osteogenic condition by RT-qPCR analysis; format: functional, tissue-based
[22] = system: Rattus norvegicus; test: Induction of tibial bone defect regeneration in ip dosed Lewis rat assessed as alleviation of bone injury administered for 10 consecutive days by HE staining based assay; format: functional, organism-based; settings: dose 0.16-4 g/Kg, time 10.0 day
[23] = system: Rattus norvegicus; test: Induction of tibial bone defect regeneration in ip dosed Lewis rat assessed as increase in Conn.D of tibial bone administered for 10 consecutive days by microcomputed tomography method; format: functional, organism-based; settings: dose 0.16-4 g/Kg, time 10.0 day
[24] = system: HBMSC; test: Induction of osteogenic differentiation in human BMSCs overexpressing miR-124-3p.1 assessed as increase in cell viability at 160 mg/ml incubated for 72 hrs under osteogenic conditions by MTT assay; format: functional, tissue-based
[25] = system: HBMSC; test: Induction of cell cycle arrest in human BMSCs overexpressing miR-124-3p.1 assessed as decrease in cells at G0/G1 phase at 160 mg/ml under osteogenic conditions by PI staining based flow cytometric analysis; format: functional
[26] = system: HBMSC; test: Induction of cell cycle arrest in human BMSCs overexpressing miR-124-3p.1 assessed as accumulation of cells at S phase at 160 mg/ml under osteogenic conditions by PI staining based flow cytometric analysis; format: functional, tissue-based
[27] = system: HBMSC; test: Induction of cell cycle arrest in human BMSCs overexpressing miR-124-3p.1 assessed as accumulation of cells at G2/M phase at 160 mg/ml under osteogenic conditions by PI staining based flow cytometric analysis; format: functional, tissue-based
[28] = system: HBMSC; test: Induction of osteogenic differentiation in human BMSCs overexpressing miR-124-3p.1 assessed as increase in alkaline phosphatase activity at 160 mg/ml incubated for 21 days under osteogenic conditions by ELISA; format: functional, tissue-based; settings: time 21.0 day
[29] = system: HBMSC; test: Induction of osteogenic differentiation in human BMSCs overexpressing miR-124-3p.1 assessed as increase in osteogenic medium-induced matrix mineralization by measuring calcium deposition at 160 mg/ml by Alizarin Red S staining-based microscopic analysis; format: functional, tissue-based
[30] = system: HBMSC; test: Induction of osteogenic differentiation in human BMSCs overexpressing miR-124-3p.1 assessed as increase in osteogenic medium-induced RUNX2 protein expression level at 160 mg/ml by Western blot analysis; format: functional, tissue-based
[31] = system: HBMSC; test: Induction of osteogenic differentiation in human BMSCs overexpressing miR-124-3p.1 assessed as increase in osteogenic medium-induced OCN protein expression level at 160 mg/ml by Western blot analysis; format: functional
[32] = system: HBMSC; test: Induction of osteogenic differentiation in human BMSCs overexpressing miR-124-3p.1 assessed as increase in osteogenic medium-induced Smad4 protein expression level at 160 mg/ml by Western blot analysis; format: functional, tissue-based
[33] = system: HBMSC; test: Induction of osteogenic differentiation in human BMSCs overexpressing miR-124-3p.1 assessed as increase in osteogenic medium-induced RUNX2 mRNA expression level at 160 mg/ml by RT-qPCR analysis; format: functional, tissue-based
[34] = system: HBMSC; test: Induction of osteogenic differentiation in human BMSCs overexpressing miR-124-3p.1 assessed as increase in osteogenic medium-induced OCN mRNA expression level at 160 mg/ml by RT-qPCR analysis; format: functional, tissue-based
[35] = system: HBMSC; test: Induction of osteogenic differentiation in human BMSCs overexpressing miR-124-3p.1 assessed as increase in osteogenic medium-induced Smad4 mRNA expression level at 160 mg/ml by RT-qPCR analysis; format: functional, tissue-based

CC(C)(O)[C@@H]1CC[C@](C)([C@H]2[C@@H](O)C[C@@]3(C)[C@@H]4C[C@H](O[C@@H]5O[C@H](CO)[C@@H](O)[C@H](O)[C@H]5O)[C@H]5C(C)(C)[C@@H](O[C@@H]6OC[C@@H](O)[C@H](O)[C@H]6O)CC[C@@]56C[C@@]46CC[C@]23C)O1
Activity [1]: Dose-Dependent Effect | Activity [2]: Dose-Dependent Effect | Activity [3]: Dose-Dependent Effect | Activity [4]: Dose-Dependent Effect | Activity [5]: Dose-Dependent Effect | Activity [6]: Dose-Dependent Effect | Activity [7]: Dose-Dependent Effect | Activity [8]: Dose-Dependent Effect | Activity [9]: Dose-Dependent Effect | Activity [10]: Dose-Dependent Effect | Activity [11]: Dose-Dependent Effect | Activity [12]: Dose-Dependent Effect | Activity [13]: Dose-Dependent Effect | Activity [14]: Dose-Dependent Effect | Activity [15]: Dose-Dependent Effect | Activity [16]: Dose-Dependent Effect | Activity [17]: Dose-Dependent Effect | Activity [18]: Dose-Dependent Effect | Activity [19]: Dose-Dependent Effect | Activity [20]: Dose-Dependent Effect | Activity [21]: Active | Activity [22]: Dose-Dependent Effect | Activity [23]: Dose-Dependent Effect | Activity [24]: inactive | Activity [25]: inactive | Activity [26]: inactive | Activity [27]: inactive | Activity [28]: inactive | Activity [29]: inactive | Activity [30]: inactive | Activity [31]: inactive | Activity [32]: inactive | Activity [33]: inactive | Activity [34]: inactive | Activity [35]: inactive
